In US8940724B2, “Quinoline derivitives and their uses” (Amgen Inc., priority 2009, dated 2015):

Biological target: T1, PI3Kδ (Homo sapiens, UniProt O00329)
T1 construct: Full length p110 subunits of PI3k α, β and δ, N-terminally labeled with polyHis tag; polyHis (N); made in house; host or cells: Sf9 insect cells (baculovirus)
Experiment: PI3Kδ Alphascreen assay
Format: biochemical

T1 sequence (O00329 whole entry): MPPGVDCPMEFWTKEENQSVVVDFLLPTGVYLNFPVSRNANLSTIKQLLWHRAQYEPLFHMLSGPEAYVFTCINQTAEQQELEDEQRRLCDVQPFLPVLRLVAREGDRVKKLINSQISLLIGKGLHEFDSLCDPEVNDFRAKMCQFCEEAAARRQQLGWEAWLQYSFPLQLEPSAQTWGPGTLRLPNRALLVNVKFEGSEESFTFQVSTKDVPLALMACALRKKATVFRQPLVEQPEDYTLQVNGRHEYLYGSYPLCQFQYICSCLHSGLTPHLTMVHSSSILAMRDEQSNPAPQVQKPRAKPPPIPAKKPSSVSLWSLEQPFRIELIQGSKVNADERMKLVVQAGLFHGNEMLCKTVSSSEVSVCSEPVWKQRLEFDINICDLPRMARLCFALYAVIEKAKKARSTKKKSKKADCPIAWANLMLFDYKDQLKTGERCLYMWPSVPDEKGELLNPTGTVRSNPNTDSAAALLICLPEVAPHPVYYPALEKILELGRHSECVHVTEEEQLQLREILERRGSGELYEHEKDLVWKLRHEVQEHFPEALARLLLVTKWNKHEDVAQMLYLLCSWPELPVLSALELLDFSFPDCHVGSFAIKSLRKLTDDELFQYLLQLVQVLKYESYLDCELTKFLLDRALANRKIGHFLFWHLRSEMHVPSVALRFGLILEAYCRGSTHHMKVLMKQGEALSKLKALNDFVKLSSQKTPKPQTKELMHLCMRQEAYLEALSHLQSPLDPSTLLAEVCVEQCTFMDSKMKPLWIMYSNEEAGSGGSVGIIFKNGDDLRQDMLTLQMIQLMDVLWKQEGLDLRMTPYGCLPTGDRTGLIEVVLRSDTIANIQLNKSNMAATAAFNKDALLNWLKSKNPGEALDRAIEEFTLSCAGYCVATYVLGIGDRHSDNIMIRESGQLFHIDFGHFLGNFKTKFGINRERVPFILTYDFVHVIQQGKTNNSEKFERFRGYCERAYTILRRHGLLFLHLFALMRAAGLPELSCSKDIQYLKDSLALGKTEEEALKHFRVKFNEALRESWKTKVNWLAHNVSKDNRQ
T1 sequence (P27986 whole entry partner): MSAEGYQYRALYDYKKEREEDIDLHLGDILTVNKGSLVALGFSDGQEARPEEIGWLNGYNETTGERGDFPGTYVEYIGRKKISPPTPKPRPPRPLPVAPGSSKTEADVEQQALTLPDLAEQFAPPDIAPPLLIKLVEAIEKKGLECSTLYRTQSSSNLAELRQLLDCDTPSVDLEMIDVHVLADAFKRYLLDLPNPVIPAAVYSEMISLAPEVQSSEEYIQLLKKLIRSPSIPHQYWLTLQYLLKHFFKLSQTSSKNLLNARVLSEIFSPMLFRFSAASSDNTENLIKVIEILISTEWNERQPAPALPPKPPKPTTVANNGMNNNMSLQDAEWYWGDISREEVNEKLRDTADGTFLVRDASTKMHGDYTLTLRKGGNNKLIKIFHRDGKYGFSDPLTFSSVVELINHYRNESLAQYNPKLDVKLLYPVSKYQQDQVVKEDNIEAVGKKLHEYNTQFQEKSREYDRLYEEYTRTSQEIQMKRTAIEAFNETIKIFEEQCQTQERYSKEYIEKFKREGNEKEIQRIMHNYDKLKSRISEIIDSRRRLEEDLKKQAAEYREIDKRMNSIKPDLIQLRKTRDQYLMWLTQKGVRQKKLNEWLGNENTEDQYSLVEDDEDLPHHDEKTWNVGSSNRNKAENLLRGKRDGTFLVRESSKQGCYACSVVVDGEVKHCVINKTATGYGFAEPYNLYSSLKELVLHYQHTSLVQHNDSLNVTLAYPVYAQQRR

Ki [nM] | SMILES
11.3 | Cc1c(N2CCN(C(C)C)CC2)nc2cc(F)cc(F)c2c1Nc1cncc(N2CCOCC2)c1 [5,7-difluoro-3-methyl-2-(4-(1-methylethyl)-1-piperazinyl)-N-(5-(4-morpholinyl)-3-pyridinyl)-4-quinolinamine]
180 | Cc1ccc(C(=O)N2CCN(c3nc4cc(F)cc(F)c4c(Nc4cncc(N5CCOCC5)c4)c3C)CC2)cn1 [5,7-difluoro-3-methyl-2-(4-((6-methyl-3-pyridinyl)carbonyl)-1-piperazinyl)-N-(5-(4-morpholinyl)-3-pyridinyl)-4-quinolinamine]
45.5 | Cc1c(N2CCN(S(C)(=O)=O)CC2)nc2cc(F)cc(F)c2c1Nc1cncc(N2CCOCC2)c1 [5,7-difluoro-3-methyl-2-(4-(methylsulfonyl)-1-piperazinyl)-N-(5-(4-morpholinyl)-3-pyridinyl)-4-quinolinamine]
35.2 | Cc1c(N2CCN(C)CC2)nc2cc(F)cc(F)c2c1Nc1cncc(N2CCOCC2)c1 [5,7-difluoro-3-methyl-2-(4-methyl-1-piperazinyl)-N-(5-(4-morpholinyl)-3-pyridinyl)-4-quinolinamine]
14.5 | Cc1c(N2CCN(C(=O)c3cocn3)CC2)nc2cc(F)cc(F)c2c1Nc1cncc(N2CCOCC2)c1 [5,7-difluoro-3-methyl-N-(5-(4-morpholinyl)-3-pyridinyl)-2-(4-(1,3-oxazol-4-ylcarbonyl)-1-piperazinyl)-4-quinolinamine]
48 | Cc1c(N2CCN(C(=O)c3cnco3)CC2)nc2cc(F)cc(F)c2c1Nc1cncc(N2CCOCC2)c1 [5,7-difluoro-3-methyl-N-(5-(4-morpholinyl)-3-pyridinyl)-2-(4-(1,3-oxazol-5-ylcarbonyl)-1-piperazinyl)-4-quinolinamine]
40.7 | Cc1c(N2CCN(CC(F)(F)F)CC2)nc2cc(F)cc(F)c2c1Nc1cncc(N2CCOCC2)c1 [5,7-difluoro-3-methyl-N-(5-(4-morpholinyl)-3-pyridinyl)-2-(4-(2,2,2-trifluoroethyl)-1-piperazinyl)-4-quinolinamine]
645 | Cc1c(N2CCN(C(=O)c3ncccn3)CC2)nc2cc(F)cc(F)c2c1Nc1cncc(N2CCOCC2)c1 [5,7-difluoro-3-methyl-N-(5-(4-morpholinyl)-3-pyridinyl)-2-(4-(2-pyrimidinylcarbonyl)-1-piperazinyl)-4-quinolinamine]
11.8 | Cc1c(N2CCN(c3cccnc3)CC2)nc2cc(F)cc(F)c2c1Nc1cncc(N2CCOCC2)c1 [5,7-difluoro-3-methyl-N-(5-(4-morpholinyl)-3-pyridinyl)-2-(4-(3-pyridinyl)-1-piperazinyl)-4-quinolinamine]
343 | Cc1c(N2CCN(C(=O)c3cccnc3)CC2)nc2cc(F)cc(F)c2c1Nc1cncc(N2CCOCC2)c1 [5,7-difluoro-3-methyl-N-(5-(4-morpholinyl)-3-pyridinyl)-2-(4-(3-pyridinylcarbonyl)-1-piperazinyl)-4-quinolinamine]
67.5 | Cc1c(N2CCN(S(=O)(=O)c3cccnc3)CC2)nc2cc(F)cc(F)c2c1Nc1cncc(N2CCOCC2)c1 [5,7-difluoro-3-methyl-N-(5-(4-morpholinyl)-3-pyridinyl)-2-(4-(3-pyridinylsulfonyl)-1-piperazinyl)-4-quinolinamine]
99.1 | Cc1c(N2CCN(C(=O)c3ccncn3)CC2)nc2cc(F)cc(F)c2c1Nc1cncc(N2CCOCC2)c1 [5,7-difluoro-3-methyl-N-(5-(4-morpholinyl)-3-pyridinyl)-2-(4-(4-pyrimidinylcarbonyl)-1-piperazinyl)-4-quinolinamine]
87.9 | Cc1c(N2CCN(C(=O)c3ccccc3)CC2)nc2cc(F)cc(F)c2c1Nc1cncc(N2CCOCC2)c1 [5,7-difluoro-3-methyl-N-(5-(4-morpholinyl)-3-pyridinyl)-2-(4-(phenylcarbonyl)-1-piperazinyl)-4-quinolinamine]

The remaining lines, values behind:

SMILES | Ki [nM]
Cc1c(-c2cc(OC(F)(F)F)ccc2S(C)(=O)=O)nc2cc(F)cc(F)c2c1Nc1cncc(N2CCOCC2)c1 [5,7-difluoro-3-methyl-2-(2-(methylsulfonyl)-5-(trifluoromethoxy)phenyl)-N-(5-(4-morpholinyl)-3-pyridinyl)-4-quinolinamine] | 4.18
Cc1c(-c2ccccc2S(C)(=O)=O)nc2cc(F)cc(F)c2c1Nc1cncc(N2CCOCC2)c1 [5,7-difluoro-3-methyl-2-(2-(methylsulfonyl)phenyl)-N-(5-(4-morpholinyl)-3-pyridinyl)-4-quinolinamine] | 3.24
Cc1c(-c2ccccn2)nc2cc(F)cc(F)c2c1Nc1cncc(C2CCOCC2)c1 [5,7-difluoro-3-methyl-2-(2-pyridinyl)-N-(5-(tetrahydro-2H-pyran-4-yl)-3-pyridinyl)-4-quinolinamine] | 209
Cc1c(N2CCN(C(=O)C(C)C)CC2)nc2cc(F)cc(F)c2c1Nc1cncc(N2CCOCC2)c1 [5,7-difluoro-3-methyl-2-(4-(2-methylpropanoyl)-1-piperazinyl)-N-(5-(4-morpholinyl)-3-pyridinyl)-4-quinolinamine] | 33.3
Cc1c(N2CCN(S(=O)(=O)C(C)C)CC2)nc2cc(F)cc(F)c2c1Nc1cncc(N2CCOCC2)c1 [5,7-difluoro-3-methyl-2-(4-((1-methylethyl)sulfonyl)-1-piperazinyl)-N-(5-(4-morpholinyl)-3-pyridinyl)-4-quinolinamine] | 53.4
Cc1c(N2CCN(S(=O)(=O)CC(C)C)CC2)nc2cc(F)cc(F)c2c1Nc1cncc(N2CCOCC2)c1 [5,7-difluoro-3-methyl-2-(4-((2-methylpropyl)sulfonyl)-1-piperazinyl)-N-(5-(4-morpholinyl)-3-pyridinyl)-4-quinolinamine] | 71.3
Cc1ccc(C(=O)N2CCN(c3nc4cc(F)cc(F)c4c(Nc4cncc(N5CCOCC5)c4)c3C)CC2)o1 [5,7-difluoro-3-methyl-2-(4-((5-methyl-2-furanyl)carbonyl)-1-piperazinyl)-N-(5-(4-morpholinyl)-3-pyridinyl)-4-quinolinamine] | 78.2
Cc1ccnc(-c2nc3cc(F)cc(F)c3c(Nc3cc(N4CCOCC4)ccc3S(C)(=O)=O)c2C)c1 [5,7-difluoro-3-methyl-2-(4-methyl-2-pyridinyl)-N-(2-(methylsulfonyl)-5-(4-morpholinyl)phenyl)-4-quinolinamine] | 0.821
Cc1ccnc(-c2nc3cc(F)cc(F)c3c(Nc3cncc(N4CCOCC4)c3)c2C)c1 [5,7-difluoro-3-methyl-2-(4-methyl-2-pyridinyl)-N-(5-(4-morpholinyl)-3-pyridinyl)-4-quinolinamine] | 19.2
Cc1c(N2CCOCC2)nc2cc(F)cc(F)c2c1Nc1cncc(N2CCOCC2)c1 [5,7-difluoro-3-methyl-2-(4-morpholinyl)-N-(5-(4-morpholinyl)-3-pyridinyl)-4-quinolinamine] | 55.7
Cc1ccc(S(C)(=O)=O)c(-c2nc3cc(F)cc(F)c3c(Nc3cncc(N4CCOCC4)c3)c2C)c1 [5,7-difluoro-3-methyl-2-(5-methyl-2-(methylsulfonyl)phenyl)-N-(5-(4-morpholinyl)-3-pyridinyl)-4-quinolinamine] | 1.35
Cc1ccc(-c2nc3cc(F)cc(F)c3c(Nc3cncc(N4CCOCC4)c3)c2C)nc1 [5,7-difluoro-3-methyl-2-(5-methyl-2-pyridinyl)-N-(5-(4-morpholinyl)-3-pyridinyl)-4-quinolinamine] | 19.1
Cc1ccc(-c2nc3cc(F)cc(F)c3c(Nc3cncc(N4CCOCC4)c3)c2C)cn1 [5,7-difluoro-3-methyl-2-(6-methyl-3-pyridinyl)-N-(5-(4-morpholinyl)-3-pyridinyl)-4-quinolinamine] | 19.1
Cc1c(N2CCNC[C@H]2C)nc2cc(F)cc(F)c2c1Nc1cncc(N2CCOCC2)c1 [5,7-difluoro-3-methyl-2-((2R)-2-methyl-1-piperazinyl)-N-(5-(4-morpholinyl)-3-pyridinyl)-4-quinolinamine] | 15.9
Cc1c(N2CCNC[C@@H]2C)nc2cc(F)cc(F)c2c1Nc1cncc(N2CCOCC2)c1 [5,7-difluoro-3-methyl-2-((2S)-2-methyl-1-piperazinyl)-N-(5-(4-morpholinyl)-3-pyridinyl)-4-quinolinamine] | 78.1
Cc1c(N2CCN[C@H](C)C2)nc2cc(F)cc(F)c2c1Nc1cncc(N2CCOCC2)c1 [5,7-difluoro-3-methyl-2-((3R)-3-methyl-1-piperazinyl)-N-(5-(4-morpholinyl)-3-pyridinyl)-4-quinolinamine] | 44.3
Cc1c(N2CCN(S(C)(=O)=O)[C@H](C)C2)nc2cc(F)cc(F)c2c1Nc1cncc(N2CCOCC2)c1 [5,7-difluoro-3-methyl-2-((3R)-3-methyl-4-(methylsulfonyl)-1-piperazinyl)-N-(5-(4-morpholinyl)-3-pyridinyl)-4-quinolinamine] | 244
Cc1c(N2CCN[C@@H](C)C2)nc2cc(F)cc(F)c2c1Nc1cncc(N2CCOCC2)c1 [5,7-difluoro-3-methyl-2-((3S)-3-methyl-1-piperazinyl)-N-(5-(4-morpholinyl)-3-pyridinyl)-4-quinolinamine] | 20.6
Cc1c(-c2ccccn2)nc2cc(F)cc(F)c2c1Oc1cncc(N2CCOCC2)c1 [5,7-difluoro-3-methyl-4-((5-(4-morpholinyl)-3-pyridinyl)oxy)-2-(2-pyridinyl)quinoline] | 51.9
Cc1c(-c2ccccn2)nc2cc(F)cc(F)c2c1Nc1cc(N2CCOCC2)cnc1-c1ccc(S(C)(=O)=O)cc1 [5,7-difluoro-3-methyl-N-(2-(4-(methylsulfonyl)phenyl)-5-(4-morpholinyl)-3-pyridinyl)-2-(2-pyridinyl)-4-quinolinamine] | 2.15
Cc1c(-c2ccccc2S(C)(=O)=O)nc2cc(F)cc(F)c2c1Nc1cc(N2CCOCC2)ccc1S(C)(=O)=O [5,7-difluoro-3-methyl-N-(2-(methylsulfonyl)-5-(4-morpholinyl)-phenyl)-2-(2-(methylsulfonyl)phenyl)-4-quinolinamine] | 0.827
Cc1c(N2CCNCC2)nc2cc(F)cc(F)c2c1Nc1cncc(N2CCOCC2)c1 [5,7-difluoro-3-methyl-N-(5-(4-morpholinyl)-3-pyridinyl)-2-(1-piperazinyl)-4-quinolinamine] | 87.1
Cc1c(-c2ccnc(N3CCCC3)c2)nc2cc(F)cc(F)c2c1Nc1cncc(N2CCOCC2)c1 [5,7-difluoro-3-methyl-N-(5-(4-morpholinyl)-3-pyridinyl)-2-(2-(1-pyrrolidinyl)-4-pyridinyl)-4-quinolinamine] | 315
